From PubChem BioAssay AID212 (DTP/NCI, 2004)
Values joined by “and” are separate entries in the source; they are usually repeats but may differ in a detail not shown here. Identical values can stand only once. Inconclusive results are not listed.

Test system: BDF1 mice, colon carcinoma 38 sc, T/C %
Assay: NCI In Vivo Anticancer Drug Screen. Data for tumor model Colon Carcinoma 38 (subcutaneous) in B6D2F1 (BDF1) mice
Description: The antitumor activity of compounds was measured in mice bearing transplantable tumors. Survival or tumor size were measured and the results are expressed as the measurement made in the treated group (T) divided by the measurement made in the vehicle treated control group (C). The tumor model used in this assay is Colon Carcinoma 38 (subcutaneous) in B6D2F1 (BDF1) mice

[1] = endpoint: median tumor weight (est.), dose: 25.0 mg/kg/injection, schedule: Q07DX002 (ip), vehicle: saline, higher = larger tumour
[2] = endpoint: median tumor weight (est.), dose: 50.0 mg/kg/injection, schedule: Q07DX002 (ip), vehicle: saline, higher = larger tumour
[3] = endpoint: median tumor weight (est.), dose: 100.0 mg/kg/injection, schedule: Q07DX002 (ip), vehicle: saline, higher = larger tumour
[4] = endpoint: median tumor weight (est.), dose: 200.0 mg/kg/injection, schedule: Q07DX002 (ip), vehicle: saline, higher = larger tumour
[5] = endpoint: median tumor weight (est.), dose: 400.0 mg/kg/injection, schedule: Q07DX002 (ip), vehicle: saline, higher = larger tumour
[6] = endpoint: median tumor weight (est.), dose: 100.0 mg/kg/injection, schedule: Q07DX002 (ip), vehicle: Klucel (hydroxypropylcellulose) (HPC), higher = larger tumour
[7] = endpoint: median tumor weight (est.), dose: 12.5 mg/kg/injection, schedule: Q07DX002 (ip), vehicle: saline with Tween-80, higher = larger tumour
[8] = endpoint: median tumor weight (est.), dose: 200.0 mg/kg/injection, schedule: Q07DX002 (ip), vehicle: saline with Tween-80, higher = larger tumour
[9] = endpoint: median tumor weight (est.), dose: 25.0 mg/kg/injection, schedule: Q07DX002 (ip), vehicle: Klucel (hydroxypropylcellulose) (HPC), higher = larger tumour
[10] = endpoint: median tumor weight (est.), dose: 200.0 mg/kg/injection, schedule: Q07DX002 (ip), vehicle: Klucel (hydroxypropylcellulose) (HPC), higher = larger tumour
[11] = endpoint: median tumor weight (est.), dose: 400.0 mg/kg/injection, schedule: Q07DX002 (ip), vehicle: Klucel (hydroxypropylcellulose) (HPC), higher = larger tumour
[12] = endpoint: median tumor weight (est.), dose: 50.0 mg/kg/injection, schedule: Q07DX002 (ip), vehicle: Klucel (hydroxypropylcellulose) (HPC), higher = larger tumour

In the case of `CN(C)c1ccc(C(=C2C=CC(=[N+](C)C)C=C2)c2ccc(N(C)C)cc2)cc1` (tested in a mixture with another compound), the T/C (endpoint: median tumor weight (est.), dose: 0.62 mg/kg/injection, schedule: Q07DX002 (ip), vehicle: saline with Tween-80, higher = larger tumour) is reported as 61 % of control and the T/C (endpoint: median tumor weight (est.), dose: 2.5 mg/kg/injection, schedule: Q07DX002 (ip), vehicle: saline with Tween-80, higher = larger tumour) is reported as 71 % of control.
For `C[C@@H](CN1CC(=O)NC(=O)C1)N1CC(=O)NC(=O)C1`, the T/C [1] was 87 % of control, the T/C [2] was 95 % of control and the T/C [3] was 97 % of control. The T/C (endpoint: median tumor weight (est.), dose: 100.0 mg/kg/injection, schedule: Q07DX003 (ip), vehicle: saline, higher = larger tumour) was 71 % of control, the T/C [4] was 110 % of control and the T/C (endpoint: median tumor weight (est.), dose: 200.0 mg/kg/injection, schedule: Q07DX003 (ip), vehicle: saline, higher = larger tumour) was 71 % of control. The T/C [5] was 93 % of control, the T/C (endpoint: median tumor weight (est.), dose: 400.0 mg/kg/injection, schedule: Q07DX003 (ip), vehicle: saline, higher = larger tumour) was 71 % of control and the T/C (endpoint: median tumor weight (est.), dose: 800.0 mg/kg/injection, schedule: Q07DX002 (ip), vehicle: saline, higher = larger tumour) was 66 % of control. The T/C (endpoint: median tumor weight (est.), dose: 800.0 mg/kg/injection, schedule: Q07DX003 (ip), vehicle: saline, higher = larger tumour) was 38 % of control.
With `CO[C@H]1C[C@](C)(O)Cc2cc3c(c(O)c21)C(=O)c1c(O)cc2c(c1C3=O)O[C@@H]1O[C@@]2(C)[C@H](O)[C@@H](N(C)C)[C@@H]1O` the T/C (endpoint: median survival time, dose: 72.0 mg/kg/injection, schedule: Q07DX003 (sc), vehicle: other, higher = longer survival) was 166 % of control, the T/C (endpoint: median tumor weight (est.), dose: 12.5 mg/kg/injection, schedule: Q07DX002 (ip), vehicle: other, higher = larger tumour) was 69 % of control and the T/C (endpoint: median tumor weight (est.), dose: 25.0 mg/kg/injection, schedule: Q07DX002 (ip), vehicle: other, higher = larger tumour) was 21 % of control and 41 % of control. The T/C (endpoint: median tumor weight (est.), dose: 50.0 mg/kg/injection, schedule: Q07DX002 (ip), vehicle: other, higher = larger tumour) was 1 % of control.
In the case of `CCC1CC2CN(CCc3c([nH]c4ccccc34)C(C(=O)OC)(c3cc4c(cc3OC)N(C)C3C(O)(C(=O)OC)C(OC(C)=O)C5(CC)C=CCN6CCC43C65)C2)C1` (stereo not given), the T/C (endpoint: median tumor weight (est.), dose: 0.25 mg/kg/injection, schedule: Q07DX002 (ip), vehicle: suspension in saline, higher = larger tumour) is reported as 162 % of control, the T/C (endpoint: median tumor weight (est.), dose: 0.5 mg/kg/injection, schedule: Q07DX002 (ip), vehicle: suspension in saline, higher = larger tumour) is reported as 158 % of control and the T/C (endpoint: median tumor weight (est.), dose: 1.0 mg/kg/injection, schedule: Q07DX002 (ip), vehicle: suspension in saline, higher = larger tumour) is reported as 167 % of control.
`Cn1cnc([N+](=O)[O-])c1S(=O)(=O)NCN1CCOCC1` was tested, and the T/C [6] was 102 % of control and 104 % of control.
`NC(=S)c1cn(C2OC(CO)C(O)C2O)c2ncnc(N)c12` (stereo not given) was tested, and the T/C (endpoint: median tumor weight (est.), dose: 1.25 mg/kg/injection, schedule: Q07DX002 (ip), vehicle: suspension in saline, higher = larger tumour) was 108 % of control, the T/C (endpoint: median tumor weight (est.), dose: 2.5 mg/kg/injection, schedule: Q07DX002 (ip), vehicle: suspension in saline, higher = larger tumour) was 81 % of control and the T/C (endpoint: median tumor weight (est.), dose: 5.0 mg/kg/injection, schedule: Q07DX002 (ip), vehicle: suspension in saline, higher = larger tumour) was 104 % of control. The T/C (endpoint: median tumor weight (est.), dose: 10.0 mg/kg/injection, schedule: Q07DX002 (ip), vehicle: suspension in saline, higher = larger tumour) was 82 % of control.
`N/C=N/O` was tested, and the T/C [1] was 124 % of control, the T/C [2] was 70 % of control and the T/C [3] was 97 % of control. The T/C [4] was 92 % of control and the T/C [5] was 56 % of control.
With `Cc1ncc([N+](=O)[O-])n1CCO` the T/C (endpoint: median tumor weight (est.), dose: 37.5 mg/kg/injection, schedule: Q01DX005 (ip), vehicle: Klucel (hydroxypropylcellulose) (HPC), higher = larger tumour) was 78 % of control, the T/C (endpoint: median tumor weight (est.), dose: 37.5 mg/kg/injection, schedule: Q04DX003 (ip), vehicle: Klucel (hydroxypropylcellulose) (HPC), higher = larger tumour) was 88 % of control and the T/C (endpoint: median tumor weight (est.), dose: 75.0 mg/kg/injection, schedule: Q01DX005 (ip), vehicle: Klucel (hydroxypropylcellulose) (HPC), higher = larger tumour) was 61 % of control. The T/C (endpoint: median tumor weight (est.), dose: 75.0 mg/kg/injection, schedule: Q04DX003 (ip), vehicle: Klucel (hydroxypropylcellulose) (HPC), higher = larger tumour) was 121 % of control, the T/C (endpoint: median tumor weight (est.), dose: 75.0 mg/kg/injection, schedule: Q07DX002 (ip), vehicle: Klucel (hydroxypropylcellulose) (HPC), higher = larger tumour) was 74 % of control and the T/C (endpoint: median tumor weight (est.), dose: 150.0 mg/kg/injection, schedule: Q01DX005 (ip), vehicle: Klucel (hydroxypropylcellulose) (HPC), higher = larger tumour) was 83 % of control. For the same compound, the T/C (endpoint: median tumor weight (est.), dose: 150.0 mg/kg/injection, schedule: Q04DX003 (ip), vehicle: Klucel (hydroxypropylcellulose) (HPC), higher = larger tumour) was 80 % of control, the T/C (endpoint: median tumor weight (est.), dose: 150.0 mg/kg/injection, schedule: Q07DX002 (ip), vehicle: Klucel (hydroxypropylcellulose) (HPC), higher = larger tumour) was 156 % of control and the T/C (endpoint: median tumor weight (est.), dose: 300.0 mg/kg/injection, schedule: Q01DX005 (ip), vehicle: Klucel (hydroxypropylcellulose) (HPC), higher = larger tumour) was 93 % of control. For the same compound, the T/C (endpoint: median tumor weight (est.), dose: 300.0 mg/kg/injection, schedule: Q04DX003 (ip), vehicle: Klucel (hydroxypropylcellulose) (HPC), higher = larger tumour) was 75 % of control, the T/C (endpoint: median tumor weight (est.), dose: 300.0 mg/kg/injection, schedule: Q07DX002 (ip), vehicle: Klucel (hydroxypropylcellulose) (HPC), higher = larger tumour) was 103 % of control and the T/C (endpoint: median tumor weight (est.), dose: 600.0 mg/kg/injection, schedule: Q01DX005 (ip), vehicle: Klucel (hydroxypropylcellulose) (HPC), higher = larger tumour) was 105 % of control. For the same compound, the T/C (endpoint: median tumor weight (est.), dose: 600.0 mg/kg/injection, schedule: Q07DX002 (ip), vehicle: Klucel (hydroxypropylcellulose) (HPC), higher = larger tumour) was 99 % of control.
With `COC1=C(OC)C(=O)C(Sc2ccc3ccccc3c2)=CC1=O` the T/C (endpoint: median tumor weight (est.), dose: 6.25 mg/kg/injection, schedule: Q07DX002 (ip), vehicle: saline with Tween-80, higher = larger tumour) was 86 % of control, the T/C [7] was 63 % of control and the T/C (endpoint: median tumor weight (est.), dose: 50.0 mg/kg/injection, schedule: Q07DX002 (ip), vehicle: saline with Tween-80, higher = larger tumour) was 90 % of control and 98 % of control. The T/C (endpoint: median tumor weight (est.), dose: 100.0 mg/kg/injection, schedule: Q07DX002 (ip), vehicle: saline with Tween-80, higher = larger tumour) was 87 % of control and 88 % of control and the T/C [8] was 74 % of control.
With `COC(=O)[C@@]12OC[C@]34[C@H]([C@@H](O)[C@@H]1O)[C@@]1(C)CC(=O)C(O)=C(C)[C@@H]1C[C@H]3OC(=O)[C@H](OC(=O)/C=C(\C)C(C)C)[C@@H]24` the T/C (endpoint: median tumor weight (est.), dose: 0.25 mg/kg/injection, schedule: Q07DX003 (ip), vehicle: other, higher = larger tumour) was 72 % of control and the T/C (endpoint: median tumor weight (est.), dose: 0.5 mg/kg/injection, schedule: Q07DX003 (ip), vehicle: other, higher = larger tumour) was 98 % of control.
With `O=[Te]=O` the T/C [1] was 98 % of control and the T/C [2] was 93 % of control.
For `Cc1ccc(S(=O)(=O)N/N=C/C(Br)=C(/Br)C(=O)O)cc1`, the T/C [9] was 94 % of control, the T/C [6] was 124 % of control and 100 % of control and the T/C [10] was 88 % of control. For the same compound, the T/C [11] was 72 % of control.
With `COC1=CC(=O)N(C(=O)C2CSC(C(CO)NC(=O)c3csc(/C=N/O)n3)=N2)C1` (stereo not given) the T/C [12] was 114 % of control, the T/C [6] was 110 % of control and the T/C [10] was 150 % of control. For the same compound, the T/C [11] was 88 % of control.
In the case of `O=NN(CCCl)C(=O)Oc1ccc(OC(=O)N(CCCl)N=O)cc1`, the T/C (endpoint: median tumor weight (est.), dose: 6.25 mg/kg/injection, schedule: Q07DX002 (ip), vehicle: Klucel (hydroxypropylcellulose) (HPC), higher = larger tumour) is reported as 75 % of control, the T/C (endpoint: median tumor weight (est.), dose: 12.5 mg/kg/injection, schedule: Q07DX002 (ip), vehicle: Klucel (hydroxypropylcellulose) (HPC), higher = larger tumour) is reported as 72 % of control and the T/C [9] is reported as 85 % of control. For the same compound, the T/C [12] was 54 % of control.
In the case of `CCN=C=NCCCN(C)C`, the T/C (endpoint: median tumor weight (est.), dose: 12.5 mg/kg/injection, schedule: Q07DX002 (ip), vehicle: saline, higher = larger tumour) is reported as 118 % of control, the T/C [1] is reported as 103 % of control and the T/C [2] is reported as 120 % of control. The T/C [3] was 100 % of control.
In the case of `C=C1C(O)C2(O)OCC34C(CC5C(C)=CC(=O)C(O)C5(C)C23)OC(=O)C(OC(=O)C(C)(O)CC)C14` (stereo not given), the T/C (endpoint: median tumor weight (est.), dose: 0.12 mg/kg/injection, schedule: Q07DX002 (ip), vehicle: saline + alcohol, higher = larger tumour) is reported as 93 % of control, the T/C (endpoint: median tumor weight (est.), dose: 0.25 mg/kg/injection, schedule: Q07DX002 (ip), vehicle: saline + alcohol, higher = larger tumour) is reported as 71 % of control and the T/C (endpoint: median tumor weight (est.), dose: 0.5 mg/kg/injection, schedule: Q07DX002 (ip), vehicle: saline + alcohol, higher = larger tumour) is reported as 93 % of control. The T/C (endpoint: median tumor weight (est.), dose: 1.0 mg/kg/injection, schedule: Q07DX002 (ip), vehicle: saline + alcohol, higher = larger tumour) was 52 % of control and the T/C (endpoint: median tumor weight (est.), dose: 2.0 mg/kg/injection, schedule: Q07DX002 (ip), vehicle: saline + alcohol, higher = larger tumour) was 57 % of control.
For `C=CCNc1nc2c(s1)CCc1cc(OC)c(OC)cc1-2`, the T/C [7] was 94 % of control, the T/C [8] was 109 % of control and 111 % of control and the T/C (endpoint: median tumor weight (est.), dose: 400.0 mg/kg/injection, schedule: Q07DX002 (ip), vehicle: saline with Tween-80, higher = larger tumour) was 73 % of control.
